Measurements published in ChEMBL document CHEMBL4680289, “10-(4-Phenylpiperazine-1-carbonyl)acridin-9(10H)-ones and related compounds: Synthesis, antiproliferative activity and inhibition of tubulin polymerization” (Bioorg Med Chem Lett, 2021).
Calls of active or inactive are those of the source. No cut-off for these calls is given here.

Experiments:
[1] = system: K562; assay: Induction of apoptosis in human K562 cells assessed as viable cells at 0.1 uM measured after 24 hrs by Annexin V-FITC/7-AAD staining based flow cytometric analysis relative to control; type: functional; conditions: read-out: Activity
[2] = system: K562; assay: Induction of apoptosis in human K562 cells assessed as necrotic cells at 0.1 uM measured after 24 hrs by Annexin V-FITC/7-AAD staining based flow cytometric analysis relative to control; type: functional
[3] = system: K562; assay: Induction of apoptosis in human K562 cells assessed as late apoptotic cells at 0.01 micromol/L measured after 48 hrs by Annexin V-FITC/7-AAD staining based flow cytometric analysis (reference value: 2.49 %); type: functional; conditions: dose 0.01 µmol/L, at 0.01 µM
[4] = molecular target: Tubulin beta (Homo sapiens) (UniProt P68371+Q9H4B7+Q13509+P04350+Q3ZCM7+P07437+Q13885+Q9BVA1+Q9BUF5+A6NNZ2); assay: Inhibition of N,N'-Ethylenebis(iodoacetamide) binding to beta-tubulin colchicine binding site in human K562 cells assessed as reduction in EBI/beta-tubulin adduct formation at 1 to 10 uM preincubated for 2.5 hrs followed by EBI addition and measured after 1.5 hrs by Western blot analysis; type: cell-based; conditions: dose 1-10 µM, time 4.0 hrs
[5] = system: K562; assay: Induction of apoptosis in human K562 cells measured after 48 hrs by Annexin V-FITC/7-AAD staining based flow cytometric analysis; type: functional, cell-based; conditions: dose 0.01-3 µmol/L
[6] = system: K562; assay: Induction of apoptosis in human K562 cells assessed as late apoptotic cells at 0.3 micromol/L measured after 48 hrs by Annexin V-FITC/7-AAD staining based flow cytometric analysis (reference value: 2.49 %); type: functional; conditions: dose 0.3 µmol/L, at 0.3 µM
[7] = system: K562; assay: Induction of apoptosis in human K562 cells assessed as early apoptotic cells at 0.3 micromol/L measured after 48 hrs by Annexin V-FITC/7-AAD staining based flow cytometric analysis (reference value: 4.2 %); type: functional; conditions: dose 0.3 µmol/L, at 0.3 µM
[8] = system: K562; assay: Induction of apoptosis in human K562 cells assessed as necrotic cells at 0.3 micromol/L measured after 48 hrs by Annexin V-FITC/7-AAD staining based flow cytometric analysis (reference value: 0.46 %); type: functional; conditions: dose 0.3 µmol/L, at 0.3 µM
[9] = system: K562; assay: Induction of apoptosis in human K562 cells assessed as viable cells at 0.03 micromol/L measured after 48 hrs by Annexin V-FITC/7-AAD staining based flow cytometric analysis (reference value: 92.85 %); type: functional; conditions: K562, 48 h, dose 0.03 µmol/L, read-out: Activity
[10] = system: K562; assay: Antiproliferative activity against human K562 cells assessed as cell growth inhibition measured after 48 hrs by MTT assay; type: functional, cell-based; conditions: K562, 48 h
[11] = system: K562; assay: Induction of apoptosis in human K562 cells assessed as early apoptotic cells at 1 micromol/L measured after 48 hrs by Annexin V-FITC/7-AAD staining based flow cytometric analysis (reference value: 4.2 %); type: functional; conditions: dose 1 µmol/L, at 1 µM
[12] = system: K562; assay: Induction of apoptosis in human K562 cells assessed as late apoptotic cells at 0.1 uM measured after 24 hrs by Annexin V-FITC/7-AAD staining based flow cytometric analysis relative to control; type: functional
[13] = system: K562; assay: Induction of apoptosis in human K562 cells assessed as viable cells at 0.3 micromol/L measured after 48 hrs by Annexin V-FITC/7-AAD staining based flow cytometric analysis (reference value: 92.85 %); type: functional; conditions: K562, 48 h, dose 0.3 µmol/L, read-out: Activity
[14] = system: K562; assay: Induction of apoptosis in human K562 cells assessed as early apoptotic cells at 0.01 micromol/L measured after 48 hrs by Annexin V-FITC/7-AAD staining based flow cytometric analysis (reference value: 4.2 %); type: functional; conditions: dose 0.01 µmol/L, at 0.01 µM
[15] = system: K562; assay: Induction of apoptosis in human K562 cells assessed as viable cells at 0.1 uM measured after 6 hrs by Annexin V-FITC/7-AAD staining based flow cytometric analysis relative to control; type: functional; conditions: read-out: Activity
[16] = system: K562; assay: Induction of apoptosis in human K562 cells assessed as necrotic cells at 0.01 micromol/L measured after 48 hrs by Annexin V-FITC/7-AAD staining based flow cytometric analysis (reference value: 0.46 %); type: functional; conditions: dose 0.01 µmol/L, at 0.01 µM
[17] = system: K562; assay: Induction of apoptosis in human K562 cells assessed as viable cells at 0.1 micromol/L measured after 48 hrs by Annexin V-FITC/7-AAD staining based flow cytometric analysis (reference value: 92.85 %); type: functional; conditions: K562, 48 h, dose 0.1 µmol/L, read-out: Activity
[18] = system: K562; assay: Induction of apoptosis in human K562 cells at 30 nM measured after 48 hrs by Annexin V-FITC/7-AAD staining based flow cytometric analysis; type: functional, cell-based
[19] = system: K562; assay: Induction of apoptosis in human K562 cells assessed as necrotic cells at 0.1 uM measured after 72 hrs by Annexin V-FITC/7-AAD staining based flow cytometric analysis relative to control; type: functional
[20] = system: K562; assay: Induction of apoptosis in human K562 cells assessed as late apoptotic cells at 0.1 micromol/L measured after 48 hrs by Annexin V-FITC/7-AAD staining based flow cytometric analysis (reference value: 2.49 %); type: functional; conditions: dose 0.1 µmol/L, at 0.1 µM
[21] = system: K562; assay: Induction of apoptosis in human K562 cells assessed as viable cells at 0.01 micromol/L measured after 48 hrs by Annexin V-FITC/7-AAD staining based flow cytometric analysis (reference value: 92.85 %); type: functional; conditions: K562, 48 h, dose 0.01 µmol/L, read-out: Activity
[22] = system: K562; assay: Cell cycle arrest in human K562 cells assessed as increase in cell accumulation at G2/M phase at < 30 nM measured after 18 hrs by propidium iodide/RNase FACSCalibur staining based flow cytometry; type: functional; conditions: dose nM <30, time 18.0 hrs
[23] = system: K562; assay: Induction of apoptosis in human K562 cells assessed as necrotic cells at 0.1 micromol/L measured after 48 hrs by Annexin V-FITC/7-AAD staining based flow cytometric analysis (reference value: 0.46 %); type: functional; conditions: dose 0.1 µmol/L, at 0.1 µM
[24] = system: K562; assay: Induction of apoptosis in human K562 cells assessed as viable cells at 0.1 uM measured after 72 hrs by Annexin V-FITC/7-AAD staining based flow cytometric analysis relative to control; type: functional; conditions: read-out: Activity
[25] = system: K562; assay: Induction of apoptosis in human K562 cells assessed as late apoptotic cells at 0.03 micromol/L measured after 48 hrs by Annexin V-FITC/7-AAD staining based flow cytometric analysis (reference value: 2.49 %); type: functional; conditions: dose 0.03 µmol/L, at 0.03 µM
[26] = system: K562; assay: Induction of apoptosis in human K562 cells assessed as early apoptotic cells at 0.1 uM measured after 72 hrs by Annexin V-FITC/7-AAD staining based flow cytometric analysis relative to control; type: functional
[27] = system: K562; assay: Induction of apoptosis in human K562 cells assessed as late apoptotic cells at 0.1 uM measured after 12 hrs by Annexin V-FITC/7-AAD staining based flow cytometric analysis relative to control; type: functional
[28] = system: K562; assay: Induction of apoptosis in human K562 cells assessed as necrotic cells at 0.03 micromol/L measured after 48 hrs by Annexin V-FITC/7-AAD staining based flow cytometric analysis (reference value: 0.46 %); type: functional; conditions: dose 0.03 µmol/L, at 0.03 µM
[29] = system: K562; assay: Induction of apoptosis in human K562 cells assessed as late apoptotic cells at 1 micromol/L measured after 48 hrs by Annexin V-FITC/7-AAD staining based flow cytometric analysis (reference value: 2.49 %); type: functional; conditions: dose 1 µmol/L, at 1 µM

- inhibition [4]: Active
- IC50 [10]: 13 nM
Structure (SMILES): COc1cc(OC)cc(N2CCN(C(=O)n3c4ccccc4c(=O)c4ccccc43)CC2)c1
- viability at 0.1 µM [1]: 66.3%
- Activity [2]: 0.23%
- Activity [3]: 4.85%
- Activity [5]: Dose-dependent effect
- Activity [6]: 32.32%
- Activity [7]: 24.76%
- Activity [8]: 0.35%
- viability at 0.03 µM [9]: 52.2%
- Activity [11]: 27.4%
- Activity [12]: 7.02%
- viability at 0.3 µM [13]: 42.6%
- Activity [14]: 6.24%
- viability at 0.1 µM [15]: 91.6%
- Activity [16]: 0.27%
- viability at 0.1 µM [17]: 41.5%
- Activity [18]: Active
- Activity [19]: 4.54%
- Activity [20]: 22.22%
- viability at 0.01 µM [21]: 88.6%
- Activity [22]: Active
- Activity [23]: 0.33%
- viability at 0.1 µM [24]: 18.2%
- Activity [25]: 25.72%
- Activity [26]: 11.57%
- Activity [27]: 2.86%
- Activity [28]: 0.53%
- Activity [29]: 31.22%
